This note sets out measurements from US7829665B2 (priority 2005, dated 2010).

Test [1] deals with HCV sub-genomic replicon in GS4.3 cells (HuH-7 hepatoma cells). The test is described as follows: Quantitation by ELISA of Neomycin phosphotransferase II (NPTII) in the HCV sub-genomic replicon, GS4.3. Particulars: Hepatitis C virus, Huh-7; GS4.3 cells, 72 h incubation, NPTII ELISA; read-out: Replicon EC50. The test is classed as cell-based, hepatitis C virus. Here is the method:
The HCV sub-genomic replicon (1377/NS3-3′, accession No. AJ242652), stably maintained in HuH-7 hepatoma cells, was created by Lohmann et al. Science 285: 110-113 (1999). The replicon-containing cell culture, designated GS4.3, was obtained from Dr. Christoph Seeger of the Institute for Cancer Research, Fox Chase Cancer Center, Philadelphia, Pa.
GS4.3 cells were maintained at 37° C., 5% CO2, in DMEM (Gibco 11965-092) supplemented with L-glutamine 200 mM (100×) (Gibco25030-081), non-essential amino acids (NEAA) (Biowhittaker 13-114E), heat-inactivated (HI) Fetal Bovine Serum (FBS) (Hyclone SH3007.03) and 750 μg/ml geneticin (G418) (Gibco 10131-035). Cells were sub-divided 1:3 or 4 every 2-3 days.
24 h prior to the assay, GS4.3 cells were collected, counted, and plated in 96-well plates (Costar 3585) at 7500 cells/well in 100 μl standard maintenance medium (above) and incubated in the conditions above. To initiate the assay, culture medium was removed, cells were washed once with PBS (Gibco 10010-023) and 90 μl Assay Medium (DMEM, L-glutamine, NEAA, 10% HI FBS, no G418) was added. Inhibitors were made as a 10× stock in Assay Medium, (3-fold dilutions from 10 μM to 56 pM final concentration, final DMSO concentration 1%), 10 μl were added to duplicate wells, plates were rocked to mix, and incubated as above for 72 h.
An NPTII Elisa kit was obtained from AGDIA, Inc. (Compound direct ELISA test system for Neomycin Phosphotransferase II, PSP 73000/4800). Manufacturer's instructions were followed, with some modifications. 10×PEB-1 lysis buffer was made up to include 500 μM PMSF (Sigma P7626, 50 mM stock in isopropanol). After 72 h incubation, cells were washed once with PBS and 150 μl PEB-1 with PMSF was added per well. Plates were agitated vigorously for 15 minutes, room temperature, then frozen at −70° C. Plates were thawed, lysates were mixed thoroughly, and 100 μl were applied to an NPTII Elisa plate. A standard curve was made. Lysate from DMSO-treated control cells was pooled, serially diluted with PEB-1 with PMSF, and applied to duplicate wells of the ELISA plate, in a range of initial lysate amount of 150 ul-2.5 ul. In addition, 100 μl buffer alone was applied in duplicate as a blank. Plates were sealed and gently agitated at room temperature for 2 h. Following capture incubation, the plates were washed 5×300 μl with PBS-T (0.5% Tween-20, PBS-T was supplied in the ELISA kit). For detection, a 1× dilution of enzyme conjugate diluent MRS-2 (5×) was made in PBS-T, into which 1:100 dilutions of enzyme conjugates A and B were added, as per instructions. Plates were resealed, and incubated with agitation, covered, room temperature, for 2 h. The washing was then repeated and 100 μl of room temperature TMB substrate was added. After approximately 30 minutes incubation (room temperature, agitation, covered), the reaction was stopped with 50 μl 3M sulfuric acid. Plates were read at 450 nm on a Molecular Devices Versamax plate reader.
Inhibitor effect was expressed as a percentage of DMSO-treated control signal, and inhibition curves were calculated using a 4-parameter equation: y=A+((B−A)/(1+((C/x)^D))), where C is half-maximal activity or EC50.
Background: ELISA stands for enzyme-linked immunosorbent assay.

In test [2] the target is T1, full-length NS3/NS4A-2 (HCV NS3 protease) (Hepatitis C virus genotype 1a, UniProt P27958).
T1 construct: Recombinant E. coli or Baculovirus full-length NS3 was diluted to 3.33 μM with assay buffer; made in house; host or cells: E. coli or baculovirus (BV) expression system
T1 sequence (P27958 1027-1657): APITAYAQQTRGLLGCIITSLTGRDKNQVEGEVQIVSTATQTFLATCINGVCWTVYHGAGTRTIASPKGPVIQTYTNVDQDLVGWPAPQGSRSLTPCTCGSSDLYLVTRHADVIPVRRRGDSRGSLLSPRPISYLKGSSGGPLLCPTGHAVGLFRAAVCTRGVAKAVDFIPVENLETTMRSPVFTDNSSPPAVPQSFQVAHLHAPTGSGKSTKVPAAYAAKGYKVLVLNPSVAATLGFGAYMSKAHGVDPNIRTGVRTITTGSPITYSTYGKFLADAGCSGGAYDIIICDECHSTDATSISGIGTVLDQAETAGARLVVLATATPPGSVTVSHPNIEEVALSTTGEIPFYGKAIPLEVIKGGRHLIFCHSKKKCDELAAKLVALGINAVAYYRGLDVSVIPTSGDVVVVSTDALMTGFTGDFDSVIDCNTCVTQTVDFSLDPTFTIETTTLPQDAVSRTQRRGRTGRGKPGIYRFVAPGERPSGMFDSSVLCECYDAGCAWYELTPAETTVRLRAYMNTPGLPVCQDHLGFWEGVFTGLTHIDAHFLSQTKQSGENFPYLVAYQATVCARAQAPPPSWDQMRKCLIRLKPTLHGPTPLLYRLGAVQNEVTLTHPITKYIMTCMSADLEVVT
Description: NS3-NS4 protease assay / NS3 inhibition assay (RETS1 substrate, fluorescence kinetic read). The test is classed as biochemical. Particulars: recombinant E. coli or Baculovirus full-length NS3 with NS4A-2; read-out: NS3-NS4 IC50. In short, it runs like this: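 Ki values come from IC50 fits corrected via Ki=IC50/(1+[S]/Km), with Km 2.03 μM for E. coli and 1.74 μM for baculovirus full-length NS3. Enzyme (2 or 3 nM NS3, respectively, complexed with NS4A-2) sat with compound, top concentration 50 microM, for 10 min at room temperature. Cleavage of RETS1 (8 μM working solution) was then followed by fluorescence (335/495 nm) over 30 min.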

Molecules are shown by their SMILES. Where only a bound is given, the exact number is not on record here.

By EC50 is commonly meant the concentration that produces a half-maximal response. What is called IC50 is the concentration that gives 50% inhibition. As for `COCC1c2cccc(F)c2CCN1C(=O)O[C@@H]1CC2C(=O)N[C@]3(C(=O)NS(=O)(=O)C4CC4)C[C@H]3/C=C\CCCCC[C@H](N)C(=O)N2C1` (stereo partly drawn) [Compound 106], the EC50 in test [1] is over 10000 nM. For the same molecule, in test [2], the IC50 is under 1000 nM.
On to `N[C@H]1CCCCC/C=C\[C@@H]2C[C@@]2(C(=O)NS(=O)(=O)C2CC2)NC(=O)[C@@H]2C[C@@H](OC(=O)N3Cc4cccc(F)c4C3)CN2C1=O` [Compound 107], for which, in test [1], the EC50 was under 10000 nM. In addition, in test [2], the IC50 is under 100 nM.
For `CC(C)(C)OC(=O)N[C@H]1CCCCC/C=C\[C@@H]2C[C@@]2(C(=O)NS(=O)(=O)c2cnccc2Cl)NC(=O)[C@@H]2C[C@@H](OC(=O)N3Cc4ccccc4C3)CN2C1=O` [Compound 108], in that order: under 10000 nM and under 100 nM.
The like results for `CC(C)(C)OC(=O)N[C@H]1CCCCC/C=C\[C@@H]2C[C@@]2(C(=O)O)NC(=O)[C@@H]2C[C@@H](OC(=O)N3Cc4ccc(F)cc4C3)CN2C1=O` [Compound 109] were, in that order, under 10000 nM and under 100 nM.
For `CC(C)(C)OC(=O)N[C@H]1CCCCC/C=C\[C@@H]2C[C@@]2(C(=O)O)NC(=O)[C@@H]2C[C@@H](OC(=O)N3Cc4ccc(C(F)(F)F)cc4C3)CN2C1=O` [Compound 110], in that order: under 10000 nM and under 1000 nM.
On to `CC(C)(C)OC(=O)N[C@H]1CCCCC/C=C\[C@@H]2C[C@@]2(C(=O)NS(=O)(=O)C2CC2)NC(=O)[C@@H]2C[C@@H](OC(=O)N3Cc4ccc(F)cc4C3)CN2C1=O` [Compound 111], for which the EC50 in test [1] is under 100 nM. The IC50 in test [2] is under 100 nM.
In the case of `CC(C)(C)OC(=O)N[C@H]1CCCCC/C=C\[C@@H]2C[C@@]2(C(=O)NS(=O)(=O)C2CC2)NC(=O)[C@@H]2C[C@@H](OC(=O)N3Cc4ccc(C(F)(F)F)cc4C3)CN2C1=O` [Compound 112], in test [1], the EC50 is under 100 nM. For the same molecule, the IC50 in test [2] was under 100 nM.
On to `CC(C)(C)OC(=O)N[C@H]1CCCCC/C=C\[C@@H]2C[C@@]2(C(=O)O)NC(=O)[C@@H]2C[C@@H](OC(=O)N3Cc4cccc(Cl)c4C3)CN2C1=O` [Compound 113], for which, in test [1], the EC50 is under 1000 nM. Further, the IC50 in test [2] was under 100 nM.
Consider `CN(C)S(=O)(=O)NC(=O)[C@@]12C[C@H]1/C=C\CCCCC[C@H](NC(=O)OC(C)(C)C)C(=O)N1C[C@H](OC(=O)N3Cc4cccc(Cl)c4C3)C[C@H]1C(=O)N2` [Compound 114], for which the EC50 in test [1] was under 100 nM. For the same molecule, in test [2], the IC50 was under 100 nM.
Turning to `CC(C)(C)OC(=O)N[C@H]1CCCCC/C=C\[C@@H]2C[C@@]2(C(=O)NS(=O)(=O)C2CC2)NC(=O)[C@@H]2C[C@@H](OC(=O)N3Cc4cccc(Cl)c4C3)CN2C1=O` [Compound 115], the EC50 in test [1] is under 100 nM. Moreover, in test [2], the IC50 was under 100 nM.
As for `O=C(N[C@H]1CCCCC/C=C\[C@@H]2C[C@@]2(C(=O)O)NC(=O)[C@@H]2C[C@@H](OC(=O)N3Cc4cccc(F)c4C3)CN2C1=O)OC1CCCC1` [Compound 116], the EC50 in test [1] is under 10000 nM. Besides, the IC50 in test [2] was under 100 nM.
The like results for `O=C(N[C@H]1CCCCC/C=C\[C@@H]2C[C@@]2(C(=O)NS(=O)(=O)c2ccccc2)NC(=O)[C@@H]2C[C@@H](OC(=O)N3CCc4ccccc4C3)CN2C1=O)OC1CCCC1` [Compound 117] were, in that order, under 100 nM and under 100 nM.
For `CCOC(=O)[C@@]12C[C@H]1/C=C\CCCCC[C@H](N)C(=O)N1C[C@H](OC(=O)N3Cc4ccccc4C3)C[C@H]1C(=O)N2` [Compound 121], in that order: under 1000 nM and under 1000 nM.
For `O=C(N[C@H]1CCCCC/C=C\[C@@H]2C[C@@]2(C(=O)O)NC(=O)[C@@H]2C[C@@H](OC(=O)N3Cc4cccc(F)c4C3)CN2C1=O)C1CCC1` [Compound 122], in that order: under 10000 nM and under 100 nM.
Turning to `O=C(N[C@H]1CCCCC/C=C\[C@@H]2C[C@@]2(C(=O)O)NC(=O)[C@@H]2C[C@@H](OC(=O)N3Cc4ccccc4C3)CN2C1=O)C1CC1` [Compound 123], the EC50 in test [1] was under 10000 nM. Moreover, the IC50 in test [2] was under 100 nM.
For `CC(C)(C)OC(=O)N[C@H]1CCCCC/C=C\[C@@H]2C[C@@]2(C(=O)O)NC(=O)[C@@H]2C[C@@H](OC(=O)N3Cc4ccc(OCCn5cccn5)cc4C3)CN2C1=O` [Compound 130], in that order: under 10000 nM and under 100 nM.
On to `CC(C)(C)OC(=O)N[C@H]1CCCCC/C=C\[C@@H]2C[C@@]2(C(=O)O)NC(=O)[C@@H]2C[C@@H](OC(=O)N3Cc4ccc(OCCNC5CC5)cc4C3)CN2C1=O` [Compound 131], for which, in test [1], the EC50 is under 10000 nM. Further, in test [2], the IC50 is under 100 nM.
The like results for `O=C(N[C@H]1CCCCC/C=C\[C@@H]2C[C@@]2(C(=O)NS(=O)(=O)C2CC2)NC(=O)[C@@H]2C[C@@H](OC(=O)N3Cc4ccc(OCCN5CCOCC5)cc4C3)CN2C1=O)OC1CCCC1` [Compound 132] were, in that order, under 100 nM and under 100 nM.
For `CN(C)CCOc1ccc2c(c1)CN(C(=O)O[C@@H]1C[C@H]3C(=O)N[C@]4(C(=O)O)C[C@H]4/C=C\CCCCC[C@H](NC(=O)OC4CCCC4)C(=O)N3C1)C2` [Compound 133], in that order: under 10000 nM and under 100 nM.
For the molecule `CN(C)CCOc1ccc2c(c1)CN(C(=O)O[C@@H]1C[C@H]3C(=O)N[C@]4(C(=O)NS(=O)(=O)C5CC5)C[C@H]4/C=C\CCCCC[C@H](NC(=O)OC4CCCC4)C(=O)N3C1)C2` [Compound 134], in test [1], the EC50 was under 100 nM. The IC50 in test [2] is under 100 nM.
As to `O=C(CCC(F)(F)F)N[C@H]1CCCCC/C=C\[C@@H]2C[C@@]2(C(=O)O)NC(=O)[C@@H]2C[C@@H](OC(=O)N3Cc4cccc(F)c4C3)CN2C1=O` [Compound 135], the EC50 in test [1] was under 10000 nM. Further, the IC50 in test [2] was under 100 nM.
For `O=C(CCC(F)(F)F)N[C@H]1CCCCC/C=C\[C@@H]2C[C@@]2(C(=O)O)NC(=O)[C@@H]2C[C@@H](OC(=O)N3Cc4ccccc4C3)CN2C1=O` [Compound 136], in that order: over 10000 nM and under 100 nM.
For `O=C(N[C@H]1CCCCC/C=C\[C@@H]2C[C@@]2(C(=O)O)NC(=O)[C@@H]2C[C@@H](OC(=O)N3Cc4cccc(Cl)c4C3)CN2C1=O)OC1CCCC1` [Compound 138], in that order: under 1000 nM and under 100 nM.
For `CC(C)(C)OC(=O)N[C@H]1CCCCC/C=C\[C@@H]2C[C@@]2(C(=O)O)NC(=O)[C@@H]2C[C@@H](OC(=O)Nc3nc4ccccc4s3)CN2C1=O` [Compound 139], in that order: over 10000 nM and under 1000 nM.
Take `CC(C)(C)OC(=O)N[C@H]1CCCCC/C=C\[C@@H]2C[C@@]2(C(=O)NS(=O)(=O)C2CC2)NC(=O)[C@@H]2C[C@@H](OC(=O)Nc3nc4ccccc4s3)CN2C1=O` [Compound 140]: the EC50 in test [1] was under 1000 nM. In addition, the IC50 in test [2] is under 100 nM.
The like results for `O=C(N[C@H]1CCCCC/C=C\[C@@H]2C[C@@]2(C(=O)NS(=O)(=O)C2CC2)NC(=O)[C@@H]2C[C@@H](OC(=O)N3Cc4cccc(Cl)c4C3)CN2C1=O)OC1CCCC1` [Compound 141] were, in that order, under 100 nM and under 100 nM.
For `O=C(CCC(F)(F)F)N[C@H]1CCCCC/C=C\[C@@H]2C[C@@]2(C(=O)O)NC(=O)[C@@H]2C[C@@H](OC(=O)N3Cc4cccc(Cl)c4C3)CN2C1=O` [Compound 142], the EC50 in test [1] is under 10000 nM. Besides, the IC50 in test [2] was under 100 nM.
